# From ChEMBL document CHEMBL1131921, “Diamino benzo[b]thiophene derivatives as a novel class of active site directed thrombin inhibitors: 3. Enhancing activity by imposing conformational restriction in the C-4" side chain” (Bioorg Med Chem Lett, 1999)
# Molecular target: Prothrombin (Homo sapiens) (UniProt P00734)
# Test: Binding affinity for human Prothrombin as apparent association constant (Kass)
row,Compound,K ass
1,c1ccc2c(Cc3ccc(O[C@@H]4CCCC[C@H]4N4CCCC4)cc3)c(-c3ccc(OCCN4CCCC4)cc3)sc2c1,2.4e+07 l M-1
2,c1ccc2c(Cc3ccc(CCCN4CCCC4)cc3)c(-c3ccc(OCCN4CCCC4)cc3)sc2c1,6.7e+06 l M-1
3,CCC(COc1ccc(Cc2c(-c3ccc(OCCN4CCCC4)cc3)sc3ccccc23)cc1)N1CCCC1 (configuration not stated),2.81e+07 l M-1
4,c1ccc2c(Cc3ccc(O[C@@H]4CCC[C@H]4N4CCCC4)cc3)c(-c3ccc(OCCN4CCCC4)cc3)sc2c1,2.74e+07 l M-1
5,C[C@@H](COc1ccc(Cc2c(-c3ccc(OCCN4CCCC4)cc3)sc3ccccc23)cc1)N1CCCC1,9.07e+06 l M-1
6,C(#Cc1ccc(Cc2c(-c3ccc(OCCN4CCCC4)cc3)sc3ccccc23)cc1)CN1CCCC1,4.84e+06 l M-1
7,CCC(CN1CCCC1)Oc1ccc(Cc2c(-c3ccc(OCCN4CCCC4)cc3)sc3ccccc23)cc1 (configuration not stated),1.23e+07 l M-1
8,C[C@H](COc1ccc(Cc2c(-c3ccc(OCCN4CCCC4)cc3)sc3ccccc23)cc1)N1CCCC1,4.17e+06 l M-1

# Other lines, results leading:
row,K ass,Compound
1,4.69e+06 l M-1,CC(C)(COc1ccc(Cc2c(-c3ccc(OCCN4CCCC4)cc3)sc3ccccc23)cc1)N1CCCC1
2,1.32e+07 l M-1,C(=C\c1ccc(Cc2c(-c3ccc(OCCN4CCCC4)cc3)sc3ccccc23)cc1)/CN1CCCC1 (stereo in doubt; trans)
3,9.8e+06 l M-1,C(=C\c1ccc(Cc2c(-c3ccc(OCCN4CCCC4)cc3)sc3ccccc23)cc1)/CN1CCCC1 (stereo in doubt; cis)
4,7.34e+06 l M-1,CC(COc1ccc(Cc2c(-c3ccc(OCCN4CCCC4)cc3)sc3ccccc23)cc1)N1CCCC1 (configuration not stated)
